Measured values reported in the NIST ThermoML archive (doi:10.1021/je049788h).

Conditions: 101.3 kPa, Liquid; for viscosity: Capillary tube (Ostwald / Ubbelohde) method; for mass density: Vibrating tube method

COCCOCCOCCOCCOC [2,5,8,11,14-pentaoxapentadecane]
Conditions | mass density [kg/m3] | viscosity [mPa·s]
298.15 K | 1006.65 | 3.38
313.15 K | 993.28 | 2.42
323.15 K | 984.05 | 2.004
333.15 K | 974.8 | 1.69
343.15 K | 965.55 | 1.42
